Data from paper PMC6691785, “Computer-aided design and synthesis of 3-carbonyl-5-phenyl-1H-pyrazole as highly selective and potent BRAFV600E and CRAF inhibitor” (Journal of Enzyme Inhibition and Medicinal Chemistry, 2019).

Columns and labels:
BRAFV600E [1] = target: T1, BRAFV600E (Homo sapiens, UniProt P15056, V600E); details: selectivity over BRAFWT; cited from earlier work
CRAF [2] = target: T2, CRAF (Homo sapiens, UniProt P04049); details: selectivity over BRAFWT; cited from earlier work
CRAF [3] = target: T2, CRAF; test: Enzymatic activity (IC50) on CRAF; type: biochemical; details: for IC50: enzymatic activity
Description: (§1) The IC50 values for BRAFV600E and CRAF were measured for each of the 12 compounds synthesised (Table 1). The compounds were all designed as 1, 3, 5-substituted benzyl group hydrophobic tails to maintain the selectivity of the previous series.

BRAFV600E [4] = target: T1, BRAFV600E; test: Enzymatic activity (IC50) on BRAFV600E; type: biochemical; details: for IC50: enzymatic activity; for times more potent for BRAFV600E than the previous series: versus N-(3-(3-alkyl-1H-pyrazol-5-yl)phenyl)-aryl amide derivatives
Description: as §1

BRAFWT = BRAFWT (Homo sapiens, UniProt P15056); test: Enzymatic activity (IC50) on BRAFWT; type: biochemical
Chain of BRAFWT (P15056 whole entry): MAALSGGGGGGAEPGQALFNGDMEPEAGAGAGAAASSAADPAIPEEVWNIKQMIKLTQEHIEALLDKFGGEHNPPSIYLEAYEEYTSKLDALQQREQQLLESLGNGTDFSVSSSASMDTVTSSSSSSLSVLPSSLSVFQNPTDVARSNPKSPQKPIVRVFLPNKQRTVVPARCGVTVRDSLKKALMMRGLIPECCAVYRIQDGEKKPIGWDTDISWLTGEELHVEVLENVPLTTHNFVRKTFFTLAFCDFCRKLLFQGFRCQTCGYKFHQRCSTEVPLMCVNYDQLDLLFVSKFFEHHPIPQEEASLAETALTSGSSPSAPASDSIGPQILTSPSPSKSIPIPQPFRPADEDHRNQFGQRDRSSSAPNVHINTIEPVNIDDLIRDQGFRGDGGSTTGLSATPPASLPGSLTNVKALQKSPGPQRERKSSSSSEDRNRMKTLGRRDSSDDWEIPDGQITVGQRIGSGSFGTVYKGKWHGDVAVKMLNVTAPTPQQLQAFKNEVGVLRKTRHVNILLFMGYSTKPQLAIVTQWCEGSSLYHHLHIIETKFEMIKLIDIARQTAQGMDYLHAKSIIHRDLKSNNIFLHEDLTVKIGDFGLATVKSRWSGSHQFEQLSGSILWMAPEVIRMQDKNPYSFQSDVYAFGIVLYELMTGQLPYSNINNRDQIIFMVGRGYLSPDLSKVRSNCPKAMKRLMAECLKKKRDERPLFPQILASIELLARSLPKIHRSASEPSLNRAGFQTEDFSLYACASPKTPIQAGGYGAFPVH
Description: (§2) Next, we used kinase panel screening in duplicate for compound 23b over 35 different kinases at a single-dose concentration of 10 μM (Table 2). The compound was indeed a selective BRAFV600E and CRAF inhibitor with an excellent selectivity profile. This compound has an inhibitory activity of more than 90% on CRAF and BRAF V600E at a concentration of 10 μM; the inhibition activity was less than 20% for most other kinases, including wild-type BRAF. We further determined the IC50 value of 23b on wild-type BRAF to be over than 20 μM, where we could confirm selectivity (Table 3). In order to investigate the effect of 23b in living cells, the human colon cancer cell line […] expressing wild-type BRAF and the malignant melanoma A375 cell line expressing BRAFV600E were treated with increasing concentrations of 23b.

CRAF [5] = target: T2, CRAF; test: Kinase panel screening, single dose 10 μM, CRAF; type: biochemical; details: in duplicate, read-out: inhibitory activity on CRAF
Description: as §2
(§3) We designed and synthesized selective, efficacious inhibitors for BRAFV600E and CRAF by in silico modeling using the Maestro programme.[20] […] We attempted kinase panel screening for compound 23b over 35 different kinases at a single-dose concentration of 10 μM (Table 2, performed in duplicate). The compound was, indeed, a selective BRAFV600E and CRAF inhibitor with an excellent selectivity profile. This compound has an inhibitory activity of 99% on BRAF V600E and CRAF at this concentration. The inhibition activity was less than 20% in most other kinases, including BRAFWT.

[6] = system: human colon cancer cell line SW620 expressing wild-type BRAF; test: MTT assay, SW620 cells; type: cell-based
Description: as §2

wild-type BRAF = wild-type BRAF (Homo sapiens, UniProt P15056); test: Kinase panel screening, single dose 10 μM, wild-type BRAF; type: biochemical; details: in duplicate
Chain of wild-type BRAF (P15056 whole entry): as above
Description: as §2, §3

BRAFV600E [7] = target: T1, BRAFV600E; test: Kinase panel screening, single dose 10 μM, BRAF V600E; type: biochemical; details: in duplicate, read-out: inhibitory activity on BRAF V600E
Description: as §2, §3

35 different kinases = test: Kinase panel screening, single dose 10 μM, other kinases of the panel; type: biochemical; details: in duplicate, most other kinases of the 35-kinase panel
Description: as §2, §3

[8] = system: malignant melanoma A375 cell line expressing BRAFV600E; test: MTT assay, A375 cells; type: cell-based; details: Homo sapiens, A-375
Description: as §2

T2 sequence (P04049 whole entry): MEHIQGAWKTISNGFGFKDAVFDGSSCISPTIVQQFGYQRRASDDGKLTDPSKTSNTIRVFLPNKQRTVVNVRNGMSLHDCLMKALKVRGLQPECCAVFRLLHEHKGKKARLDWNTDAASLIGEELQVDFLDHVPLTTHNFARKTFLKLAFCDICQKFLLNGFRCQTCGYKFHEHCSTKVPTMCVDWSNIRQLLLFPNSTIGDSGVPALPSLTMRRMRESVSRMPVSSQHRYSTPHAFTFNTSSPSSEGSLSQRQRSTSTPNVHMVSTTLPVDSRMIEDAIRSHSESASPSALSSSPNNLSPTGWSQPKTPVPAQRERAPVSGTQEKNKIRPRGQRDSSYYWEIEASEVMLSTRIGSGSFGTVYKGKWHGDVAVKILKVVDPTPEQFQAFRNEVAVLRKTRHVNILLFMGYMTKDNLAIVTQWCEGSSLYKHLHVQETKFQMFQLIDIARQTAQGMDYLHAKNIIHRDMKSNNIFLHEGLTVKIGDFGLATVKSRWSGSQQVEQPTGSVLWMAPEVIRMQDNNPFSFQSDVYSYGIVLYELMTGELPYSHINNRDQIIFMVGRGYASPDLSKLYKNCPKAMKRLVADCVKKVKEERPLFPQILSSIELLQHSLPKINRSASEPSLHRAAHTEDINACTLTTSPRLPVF
T1 sequence (P15056 whole entry V600E): as the sequence (P15056 whole entry) above, with V600E counted along it

SMILES	IC50 (CRAF [3])	IC50 (BRAFV600E [4])	IC50 (BRAFWT)	also measured
CC(C)c1cc(-c2cccc(NC(=O)c3cc(N4CCN(C)CC4)cc(C(F)(F)F)c3)c2)[nH]n1 [Compound 2, N-(3–(3-alkyl-1H-pyrazol-5-yl)phenyl)-aryl amide]				times more potent on BRAFV600E than on BRAFWT (BRAFV600E [1]): 20 times; times more potent on CRAF than on BRAFWT (CRAF [2]): 126 times
O=C(Nc1cccc(-c2cc(C(=O)NCCN3CCOCC3)[nH]n2)c1)c1cc(N2CCOCC2)cc(C(F)(F)F)c1 [Compound 20a]	1500 nM	2800 nM	16400 nM	
Cc1nccn1-c1cc(C(=O)Nc2cccc(-c3cc(C(=O)NCCN4CCOCC4)[nH]n3)c2)cc(C(F)(F)F)c1 [Compound 20b]	590 nM	980 nM	13100 nM	
Cc1cn(-c2cc(C(=O)Nc3cccc(-c4cc(C(=O)NCCN5CCOCC5)[nH]n4)c3)cc(C(F)(F)F)c2)cn1 [Compound 20c]	580 nM	910 nM	14700 nM	
CN1CCN(c2cc(C(=O)Nc3cccc(-c4cc(C(=O)NCCN5CCOCC5)[nH]n4)c3)cc(C(F)(F)F)c2)CC1 [Compound 20d]	1150 nM	2700 nM	> 20000 nM	
O=C(Nc1cccc(-c2cc(C(=O)NCCN3CCNCC3)[nH]n2)c1)c1cc(N2CCOCC2)cc(C(F)(F)F)c1 [Compound 22a]	1600 nM	2090 nM	> 20000 nM	
Cc1nccn1-c1cc(C(=O)Nc2cccc(-c3cc(C(=O)NCCN4CCNCC4)[nH]n3)c2)cc(C(F)(F)F)c1 [Compound 22b]	830 nM	1260 nM	12900 nM	
Cc1cn(-c2cc(C(=O)Nc3cccc(-c4cc(C(=O)NCCN5CCNCC5)[nH]n4)c3)cc(C(F)(F)F)c2)cn1 [Compound 22c]	580 nM	1510 nM		
O=C(Nc1cccc(-c2cc(C(=O)OCCN3CCOCC3)[nH]n2)c1)c1cc(N2CCOCC2)cc(C(F)(F)F)c1 [Compound 23a]	130 nM	680 nM	> 20000 nM	
Cc1nccn1-c1cc(C(=O)Nc2cccc(-c3cc(C(=O)OCCN4CCOCC4)[nH]n3)c2)cc(C(F)(F)F)c1 [Compound 23b]	20 nM	100 nM	> 20000 nM	inhibition at 10 µM (CRAF [5]): > 90%; GI50 ([6]; Homo sapiens, SW-620, SW620 cells expressing BRAFWT): > 10000 nM; inhibition of the proliferation ([6]; increasing concentrations, SW620 cells expressing BRAFWT): not in the cells expressing BRAFWT; inhibition at 10 µM (wild-type BRAF): < 20%; inhibition at 10 µM (BRAFV600E [7]): > 90%; times more potent for CRAF than the previous series (CRAF [3]; versus N-(3-(3-alkyl-1H-pyrazol-5-yl)phenyl)-aryl amide derivatives): 5 times; times more potent for BRAFV600E than the previous series (BRAFV600E [4]): 7 times; times more potent for BRAFV600E than the previous series (BRAFV600E [4]; listed as 23 b): seven; inhibition activity for most other kinases (35 different kinases): less than 20%; GI50 [8]: 70 nM
Cc1cn(-c2cc(C(=O)Nc3cccc(-c4cc(C(=O)OCCN5CCOCC5)[nH]n4)c3)cc(C(F)(F)F)c2)cn1 [Compound 23c]	60 nM	330 nM	> 20000 nM	
CN1CCN(c2cc(C(=O)Nc3cccc(-c4cc(C(=O)OCCN5CCOCC5)[nH]n4)c3)cc(C(F)(F)F)c2)CC1 [Compound 23d]	160 nM	680 nM	> 20000 nM	
O=C(Nc1cccc(-c2cc(C(=O)OCCN3CCCCC3)[nH]n2)c1)c1cc(N2CCOCC2)cc(C(F)(F)F)c1 [Compound 24]	210 nM	400 nM	> 20000 nM	
